Legend:
[1] = system: Human breast cancer cell line T47D; test: Cell based caspase-3 activity assay: potentiation of MMS induced apoptosis; conditions: Homo sapiens, T47D, 24 h, T47D cells, 11.1 μg/ml MMS, 24 hours, intracellular caspase-3 activity; read-out: EC50 (nM), potentiation of the apoptosis inducing activity of MMS
Procedure, shortened: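 T47D cells were exposed for 24 h to compound plus a minimally apoptotic MMS dose (medium containing 11.1 μg/ml MMS). Lysates were incubated 3 h at 37 °C with (Ac-DEVD)2-R110 caspase-3 substrate (20 μM in added buffer) and read at ex 496/em 520 nm. EC50 came from a sigmoidal fit of RFU versus log concentration.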

[2] = system: SW620 human colorectal cancer cells; test: MTT based cell viability assay: potentiation of the growth inhibiting activity of MMS; conditions: Homo sapiens, SW-620, 120 h, read-out: IC50 (nM), potentiation of the growth inhibiting activity of MMS, SW620 cells, 1.7 μg/ml MMS, 5 days (120 hours), MTT
[3] = system: BRCA-2 deficient CAPAN-1 human pancreatic cancer cells; test: MTT based cell viability assay: growth inhibition of BRCA-2 deficient CAPAN-1 cells; conditions: 240 h, compound alone, 10 day assay
Description: Determination of the cell growth inhibiting activity of 1-(3-(4-(pyrimidin-2-yl)piperazine-1-carbonyl)benzyl)quinazoline-2,4(1H,3H)-dione and analogs on BRCA-2 deficient CAPAN-1 pancreatic duck cancer cells using a MTT based cell viability assay
BRCA-deficient cancer cells are sensitive to PARP inhibition. In the presence of PARP inhibitors, BRCA-deficient cancer cells could not grow and eventually will lead to death of cells. BRCA-2 deficient CAPAN-1 human pancreatic cancer cells were used to test the growth inhibiting activity of substituted 1-(arylmethyl)quinazoline-2,4(1H,3H)-diones. Briefly, CAPAN-1 cells are grown and maintained in IMEM medium supplemented with 20% FBS. The assay takes 10 days to finish. On day 1, 6000 CAPAN-1 cells are seeded to each well of a 96-well plate. The cells are incubated at 37° C. in a cell culture incubator overnight. In the next day, serial dilutions of compounds to be tested and reference compound (AZD2281) were prepared with a 1:3 and 1:10 fashion in DMSO. Ten-fold compound solutions were made by mixing 10 μl DMSO serial dilution solutions with 90 μl fresh growth medium. The cell culture medium was removed and 180 μl fresh media with FBS and 20 μl of compound solutions were added to each well. The final concentration of DMSO was 1%. Cells were then returned to the CO2 cell culture incubator and incubated at 37° C. for two days (day 3 and day 4). On day 5, the same procedure as what was done on day 2 was repeated. Cell culture medium was removed and fresh medium containing serial dilutions of compounds or reference compounds were added. Cells were returned to the CO2 cell culture incubator and incubated for two more days. On day 8, same procedure was repeated again and fresh medium containing the testing compounds or reference compounds were added and incubated for an additional 2 days. On day 10, 20 μl of MTT reagent (5 mg/ml) was added to each well of the cell culture plate and incubated for 4 h. The cell culture media was removed and 100 μl DMSO was added to each well. The 96-well cell culture plates were shaked horizontally for 10 min and readed in a Varioskan Flash plate reader (Thermo Fisher Scientific) at 520 and 690 nm. The obtained 520 nm absorbance readings subtracting corresponding 690 nm reading were analyzed using a commercial graphic software (GraphPad Prism 5) and plotted against the Log scale of the compound concentrations.

Row | Compound | EC50 [1] | IC50 [2] | IC50 [3]
1 | O=C(c1ccc(F)c(Cn2c(=O)[nH]c(=O)c3c(F)cccc32)c1)N1CCN(c2ncccn2)CC1 [Example 154, 5-Fluoro-1-(6-fluoro-3-(4-(pyrimidin-2-yl)piperazine-1-carbonyl)benzyl)quinazoline-2,4(1H,3H)-dione] | 6.7 nM | 7.3 nM | 56 nM
2 | O=C(c1cc(Cn2c(=O)[nH]c(=O)c3c(F)cccc32)ccc1F)N1CCN(C(=O)C2CCCC2)CC1 [Example 133, 1-(3-(4-(Cyclopentylcarbonyl)piperazine-1-carbonyl)-4-fluorobenzyl)-5-fluoroquinazoline-2,4(1H,3H)-dione] | 2.1 nM | 4.1 nM | 22 nM
3 | O=C(c1ccc(Cl)c(Cn2c(=O)[nH]c(=O)c3ccccc32)c1)N1CCN(c2ncccn2)CC1 [Example 56, 1-(6-Chloro-3-(4-(pyrimidin-2-yl)piperazine-1-carbonyl)benzyl)quinazoline-2,4(1H,3H)-dione] | 16 nM | 30 nM | 1180 nM
4 | O=C(c1cccc(Cn2c(=O)[nH]c(=O)c3c(F)cccc32)c1)N1CCN(C(=O)C2CCCC2)CC1 [Example 128, 1-(3-(4-(Cyclopentylcarbonyl)piperazine-1-carbonyl)benzyl)-5-fluoroquinazoline-2,4(1H,3H)-dione] | 12 nM | 37 nM | 442 nM
5 | O=C(c1cc(Cn2c(=O)[nH]c(=O)c3cc(Cl)ccc32)ccc1F)N1CCN(C(=O)C2CCCC2)CC1 [Example 118, 6-Chloro-1-(3-(4-(cyclopentylcarbonyl)piperazine-1-carbonyl)-4-fluorobenzyl)quinazoline-2,4(1H,3H)-dione] | 3.1 nM | 0.82 nM | 54 nM
6 | O=C(c1ccc(F)c(Cn2c(=O)[nH]c(=O)c3cc(Cl)ccc32)c1)N1CCN(c2ncccn2)CC1 [Example 123, 6-Chloro-1-(6-fluoro-3-(4-(pyrimidin-2-yl)piperazine-1-carbonyl)benzyl)quinazoline-2,4(1H,3H)-dione] | 11 nM | 15 nM | 111 nM
7 | O=C(c1ccco1)N1CCN(C(=O)c2cc(Cn3c(=O)[nH]c(=O)c4c(F)cccc43)ccc2F)CC1 [Example 172, 5-Fluoro-1-(4-fluoro-3-(4-(furan-2-carbonyl)piperazine-1-carbonyl)benzyl)quinazoline-2,4(1H,3H)-dione] | 3.2 nM | 9.5 nM | 389 nM
8 | O=C(c1cc(Cn2c(=O)[nH]c(=O)c3c(F)cccc32)ccc1F)N1CCN(C(=O)C2CCCO2)CC1 (stereo not drawn) [Example 210, 5-Fluoro-1-(4-fluoro-3-(4-(tetrahydrofuran-2-carbonyl)piperazine-1-carbonyl)benzyl)quinazoline-2,4(1H,3H)-dione] | 15 nM | 10 nM | 3440 nM
9 | O=C(c1cccc(Cn2c(=O)[nH]c(=O)c3cc(Cl)ccc32)c1)N1CCN(c2ncccn2)CC1 [Example 111, 6-Chloro-1-(3-(4-(pyrimidin-2-yl)piperazine-1-carbonyl)benzyl)quinazoline-2,4(1H,3H)-dione] | 1.7 nM | 27 nM | 77 nM
10 | O=C(c1cccc(Cn2c(=O)[nH]c(=O)c3cc(F)ccc32)c1)N1CCN(c2ccccn2)CC1 [Example 140, 6-Fluoro-1-(3-(4-(pyridin-2-yl)piperazine-1-carbonyl)benzyl)quinazoline-2,4(1H,3H)-dione] | 8.9 nM | 37 nM | 155 nM
11 | O=C(c1cc(Cn2c(=O)[nH]c(=O)c3ccccc32)ccc1F)N1CCN(C(=O)C2CCCCC2)CC1 [Example 41, 1-(3-(4-(Cyclohexylcarbonyl)piperazine-1-carbonyl)-4-fluorobenzyl)quinazoline-2,4(1H,3H)-dione] | 2.2 nM | 11 nM | 208 nM
12 | O=C(c1ccc(F)c(Cn2c(=O)[nH]c(=O)c3cc(F)ccc32)c1)N1CCN(c2ncccn2)CC1 [Example 149, 6-Fluoro-1-(6-fluoro-3-(4-(pyrimidin-2-yl)piperazine-1-carbonyl)benzyl)quinazoline-2,4(1H,3H)-dione] | 5.8 nM | 14 nM | 52 nM
13 | O=C(c1cc(Cn2c(=O)[nH]c(=O)c3c(F)cccc32)ccc1F)N1CCN(C2CCCCC2)CC1 [Example 212, 1-(3-(4-Cyclohexylpiperazine-1-carbonyl)-4-fluorobenzyl)-5-fluoroquinazoline-2,4(1H,3H)-dione] | 45 nM | 19 nM | > 10000 nM
14 | O=C(c1cccc(Cn2c(=O)[nH]c(=O)c3cc(Cl)ccc32)c1)N1CCN(C(=O)C2CCCC2)CC1 [Example 112, 6-Chloro-1-(3-(4-(cyclopentylcarbonyl)piperazine-1-carbonyl)benzyl)quinazoline-2,4(1H,3H)-dione] | 2.9 nM | 14 nM | 767 nM
15 | O=C(c1ccc(F)c(Cn2c(=O)[nH]c(=O)c3ccccc32)c1)N1CCN(c2ncccn2)CC1 [Example 50, 1-(6-Fluoro-3-(4-(pyrimidin-2-yl)piperazine-1-carbonyl)benzyl)quinazoline-2,4(1H,3H)-dione] | 13 nM | 37 nM | 173 nM
16 | O=C(c1cccc(Cn2c(=O)[nH]c(=O)c3c(Cl)cccc32)c1)N1CCN(c2ncccn2)CC1 [Example 100, 5-Chloro-1-(3-(4-(pyrimidin-2-yl)piperazine-1-carbonyl)benzyl)quinazoline-2,4(1H,3H)-dione] | 70 nM | 202 nM | 312 nM
17 | O=C(c1cc(Cn2c(=O)[nH]c(=O)c3ccccc32)ccc1F)N1CCN(c2nsc3ccccc23)CC1 [Example 43, 1-(3-(4-(Benzo[d]isothiazol-3-yl)piperazine-1-carbonyl)-4-fluorobenzyl)quinazoline-2,4(1H,3H)-dione] | 18 nM | 51 nM | 974 nM
18 | O=C(c1cc(Cn2c(=O)[nH]c(=O)c3c(Cl)cccc32)ccc1F)N1CCN(C(=O)C2CCCCC2)CC1 [Example 105, 5-Chloro-1-(3-(4-(cyclohexylcarbonyl)piperazine-1-carbonyl)-4-fluorobenzyl)quinazoline-2,4(1H,3H)-dione] | 14 nM | 7.9 nM | 97 nM
19 | O=C(c1cc(F)cc(Cn2c(=O)[nH]c(=O)c3cc(F)ccc32)c1)N1CCN(c2ncccn2)CC1 [Example 186, 6-Fluoro-1-(5-fluoro-3-(4-(pyrimidin-2-yl)piperazine-1-carbonyl)benzyl)quinazoline-2,4(1H,3H)-dione] | 6.8 nM | 24 nM | 167 nM
20 | Cc1ccc2c(c1)c(=O)[nH]c(=O)n2Cc1ccc(F)c(C(=O)N2CCN(C(=O)C3CCCC3)CC2)c1 [Example 85, 1-(3-(4-(Cyclopentylcarbonyl)piperazine-1-carbonyl)-4-fluorobenzyl)-6-methylquinazoline-2,4(1H,3H)-dione] | 7.6 nM | 25 nM | 291 nM
21 | O=C(c1cccc(Cn2c(=O)[nH]c(=O)c3cc(Cl)ccc32)c1)N1CCN(C(=O)C2CCCCC2)CC1 [Example 113, 6-Chloro-1-(3-(4-(cyclohexylcarbonyl)piperazine-1-carbonyl)benzyl)quinazoline-2,4(1H,3H)-dione] | 17 nM | 9.6 nM | 170 nM
22 | O=C(c1ccc(F)c(Cn2c(=O)[nH]c(=O)c3c(F)cccc32)c1)N1CCN(C(=O)C2CCCCC2)CC1 [Example 157, 1-(3-(4-(Cyclohexylcarbonyl)piperazine-1-carbonyl)-6-fluorobenzyl)-5-fluoroquinazoline-2,4(1H,3H)-dione] | 26 nM | 18 nM | 202 nM

Reference: US9926304B2, “1-(arylmethyl)quinazoline-2,4(1H,3H)-diones as PARP inhibitors and the use thereof” (Impact Therapeutics, Inc., priority 2011, dated 2018)
